Data taken from ChEMBL document CHEMBL4414672, “Synthesis of certain benzothieno[3,2-d]pyrimidine derivatives as a selective SIRT2 inhibitors” (Eur J Med Chem, 2020).

Columns and labels:
Assay type in all cases: functional
HCT-15 = assay: Growth inhibition of human HCT15 cells at 10^-5 M incubated for 48 hrs by sulforhodamine B assay; conditions: HCT-15, 48 h, read-out: GI
SW-620 = assay: Growth inhibition of human SW620 cells at 10^-5 M incubated for 48 hrs by sulforhodamine B assay; conditions: SW-620, 48 h, read-out: GI
NCI/ADR-RES = assay: Growth inhibition of human NCI/ADR-RES cells at 10^-5 M incubated for 48 hrs by sulforhodamine B assay; conditions: read-out: GI
RXF 393 = assay: Growth inhibition of human RXF393 cells at 10^-5 M incubated for 48 hrs by sulforhodamine B assay; conditions: RXF 393, 48 h, read-out: GI
MDA-MB-231 = assay: Growth inhibition of human MDA-MB-231 cells at 10^-5 M incubated for 48 hrs by sulforhodamine B assay; conditions: MDA-MB-231, 48 h, read-out: GI
HCT-116 = assay: Growth inhibition of human HCT116 cells at 10^-5 M incubated for 48 hrs by sulforhodamine B assay; conditions: HCT-116, 48 h, read-out: GI
M14 = assay: Growth inhibition of human M14 cells at 10^-5 M incubated for 48 hrs by sulforhodamine B assay; conditions: M14, 48 h, read-out: GI
DU-145 = assay: Growth inhibition of human DU145 cells at 10^-5 M incubated for 48 hrs by sulforhodamine B assay; conditions: DU-145, 48 h, read-out: GI
HL-60(TB) = assay: Growth inhibition of human HL-60(TB) cells at 10^-5 M incubated for 48 hrs by sulforhodamine B assay; conditions: HL-60, 48 h, read-out: GI
SN12C = assay: Growth inhibition of human SN12C cells at 10^-5 M incubated for 48 hrs by sulforhodamine B assay; conditions: read-out: GI
TK-10 = assay: Growth inhibition of human TK10 cells at 10^-5 M incubated for 48 hrs by sulforhodamine B assay; conditions: TK-10, 48 h, read-out: GI
ACHN = assay: Growth inhibition of human ACHN cells at 10^-5 M incubated for 48 hrs by sulforhodamine B assay; conditions: read-out: GI
SF-268 = assay: Growth inhibition of human SF268 cells at 10^-5 M incubated for 48 hrs by sulforhodamine B assay; conditions: SF-268, 48 h, read-out: GI
SK-MEL-5 = assay: Growth inhibition of human SK-MEL-5 cells at 10^-5 M incubated for 48 hrs by sulforhodamine B assay; conditions: SK-MEL-5, 48 h, read-out: GI
OVCAR-8 = assay: Growth inhibition of human OVCAR8 cells at 10^-5 M incubated for 48 hrs by sulforhodamine B assay; conditions: OVCAR-8, 48 h, read-out: GI
SNB-75 = assay: Growth inhibition of human SNB75 cells at 10^-5 M incubated for 48 hrs by sulforhodamine B assay; conditions: SNB-75, 48 h, read-out: GI
UACC-62 = assay: Growth inhibition of human UACC62 cells at 10^-5 M incubated for 48 hrs by sulforhodamine B assay; conditions: UACC-62, 48 h, read-out: GI
IGROV-1 = assay: Growth inhibition of human IGROV1 cells at 10^-5 M incubated for 48 hrs by sulforhodamine B assay; conditions: IGROV-1, 48 h, read-out: GI
CCRF-CEM = assay: Growth inhibition of human CCRF-CEM cells at 10^-5 M incubated for 48 hrs by sulforhodamine B assay; conditions: read-out: GI
SNB-19 = assay: Growth inhibition of human SNB19 cells at 10^-5 M incubated for 48 hrs by sulforhodamine B assay; conditions: SNB-19, 48 h, read-out: GI
LOX IMVI = assay: Growth inhibition of human LOXIMVI cells at 10^-5 M incubated for 48 hrs by sulforhodamine B assay; conditions: read-out: GI
NCI-H460 = assay: Growth inhibition of human NCI-H460 cells at 10^-5 M incubated for 48 hrs by sulforhodamine B assay; conditions: NCI-H460, 48 h, read-out: GI
NCI-H322M = assay: Growth inhibition of human NCI-H322M cells at 10^-5 M incubated for 48 hrs by sulforhodamine B assay; conditions: read-out: GI
Hs-578T = assay: Growth inhibition of human Hs 578T cells at 10^-5 M incubated for 48 hrs by sulforhodamine B assay; conditions: read-out: GI
A498 = assay: Growth inhibition of human A498 cells at 10^-5 M incubated for 48 hrs by sulforhodamine B assay; conditions: A498, 48 h, read-out: GI
A549 = assay: Growth inhibition of human A549/ATCC cells at 10^-5 M incubated for 48 hrs by sulforhodamine B assay; conditions: A549, 48 h, read-out: GI
OVCAR-3 = assay: Growth inhibition of human OVCAR3 cells at 10^-5 M incubated for 48 hrs by sulforhodamine B assay; conditions: OVCAR-3, 48 h, read-out: GI
SR = assay: Growth inhibition of human SR cells at 10^-5 M incubated for 48 hrs by sulforhodamine B assay; conditions: read-out: GI
786-0 = assay: Growth inhibition of human 786-0 cells at 10^-5 M incubated for 48 hrs by sulforhodamine B assay; conditions: 786-0, 48 h, read-out: GI
MOLT-4 = assay: Growth inhibition of human MOLT4 cells at 10^-5 M incubated for 48 hrs by sulforhodamine B assay; conditions: MOLT-4, 48 h, read-out: GI
NCI-H522 = assay: Growth inhibition of human NCI-H522 cells at 10^-5 M incubated for 48 hrs by sulforhodamine B assay; conditions: NCI-H522, 48 h, read-out: GI
Malme-3M = assay: Growth inhibition of human MALME-3M cells at 10^-5 M incubated for 48 hrs by sulforhodamine B assay; conditions: read-out: GI
SK-MEL-28 = assay: Growth inhibition of human SK-MEL-28 cells at 10^-5 M incubated for 48 hrs by sulforhodamine B assay; conditions: SK-MEL-28, 48 h, read-out: GI
T47D = assay: Growth inhibition of human T47D cells at 10^-5 M incubated for 48 hrs by sulforhodamine B assay; conditions: read-out: GI
MCF7 = assay: Growth inhibition of human MCF7 cells at 10^-5 M incubated for 48 hrs by sulforhodamine B assay; conditions: MCF7, 48 h, read-out: GI
SK-OV-3 = assay: Growth inhibition of human SKOV3 cells at 10^-5 M incubated for 48 hrs by sulforhodamine B assay; conditions: SK-OV-3, 48 h, read-out: GI
NCI-H23 = assay: Growth inhibition of human NCI-H23 cells at 10^-5 M incubated for 48 hrs by sulforhodamine B assay; conditions: NCI-H23, 48 h, read-out: GI
OVCAR-5 = assay: Growth inhibition of human OVCAR5 cells at 10^-5 M incubated for 48 hrs by sulforhodamine B assay; conditions: OVCAR-5, 48 h, read-out: GI
SF-295 = assay: Growth inhibition of human SF295 cells at 10^-5 M incubated for 48 hrs by sulforhodamine B assay; conditions: SF-295, 48 h, read-out: GI

Structure (SMILES)	inhibition of growth at 10 µM (HCT-15) [%]	inhibition of growth at 10 µM (SW-620) [%]	inhibition of growth at 10 µM (NCI/ADR-RES) [%]	inhibition of growth at 10 µM (RXF 393) [%]	inhibition of growth at 10 µM (MDA-MB-231) [%]	inhibition of growth at 10 µM (HCT-116) [%]	inhibition of growth at 10 µM (M14) [%]	inhibition of growth at 10 µM (DU-145) [%]	inhibition of growth at 10 µM (HL-60(TB)) [%]	inhibition of growth at 10 µM (SN12C) [%]	inhibition of growth at 10 µM (TK-10) [%]	inhibition of growth at 10 µM (ACHN) [%]	inhibition of growth at 10 µM (SF-268) [%]	inhibition of growth at 10 µM (SK-MEL-5) [%]	inhibition of growth at 10 µM (OVCAR-8) [%]	inhibition of growth at 10 µM (SNB-75) [%]	inhibition of growth at 10 µM (UACC-62) [%]	inhibition of growth at 10 µM (IGROV-1) [%]	inhibition of growth at 10 µM (CCRF-CEM) [%]	inhibition of growth at 10 µM (SNB-19) [%]	further results
O=C1/C(=C\c2cccc(Br)c2)Sc2ccc(Cl)cc21	-10.9	-1.25	-2.33	-5.49	-3.31	0.42	-1.09	-12.3	-5.53	-0.02	-29.1	3.66	2.33	1.63	-3.52	2.14	2.69	-2.64	-14.5	-6.33	inhibition of growth at 10 µM (LOX IMVI): 2.63%; inhibition of growth at 10 µM (NCI-H460): -7.98%; inhibition of growth at 10 µM (NCI-H322M): 9.44%; inhibition of growth at 10 µM (Hs-578T): -8.14%; inhibition of growth at 10 µM (A498): 13.5%; inhibition of growth at 10 µM (A549): 2.51%; inhibition of growth at 10 µM (OVCAR-3): -12.1%; inhibition of growth at 10 µM (SR): -4.42%; inhibition of growth at 10 µM (786-0): -3.61%; inhibition of growth at 10 µM (MOLT-4): -5.33%; inhibition of growth at 10 µM (NCI-H522): 5.63%; inhibition of growth at 10 µM (Malme-3M): -1.08%; inhibition of growth at 10 µM (SK-MEL-28): -20.5%; inhibition of growth at 10 µM (T47D): 1.47%; inhibition of growth at 10 µM (MCF7): -12.3%; inhibition of growth at 10 µM (SK-OV-3): 5.77%; inhibition of growth at 10 µM (NCI-H23): 8.26%; inhibition of growth at 10 µM (OVCAR-5): -9.67%; inhibition of growth at 10 µM (SF-295): -0.53%
N=C1Nc2c(sc3ccc(Cl)cc23)C(c2ccc3ccccc3c2)N1 (stereo not drawn)	3.37	0.99	1.25	0.36	-0.83	10.6	-0.34	12.1	-3.45	-25.1	30.2	25.9	-5.53	-0.53	-3.15	0.66	6	-4.93	-3.9	18.1	inhibition of growth at 10 µM (LOX IMVI): 6.47%; inhibition of growth at 10 µM (NCI-H460): 13.2%; inhibition of growth at 10 µM (NCI-H322M): 6.59%; inhibition of growth at 10 µM (Hs-578T): 14.6%; inhibition of growth at 10 µM (A498): 6.65%; inhibition of growth at 10 µM (A549): 7.42%; inhibition of growth at 10 µM (OVCAR-3): 8.92%; inhibition of growth at 10 µM (SR): -0.62%; inhibition of growth at 10 µM (786-0): 5.33%; inhibition of growth at 10 µM (MOLT-4): 10.9%; inhibition of growth at 10 µM (NCI-H522): -6.52%; inhibition of growth at 10 µM (Malme-3M): 1.8%; inhibition of growth at 10 µM (SK-MEL-28): 2.06%; inhibition of growth at 10 µM (T47D): -15.3%; inhibition of growth at 10 µM (MCF7): 6.28%; inhibition of growth at 10 µM (SK-OV-3): -0.13%; inhibition of growth at 10 µM (NCI-H23): 5.66%; inhibition of growth at 10 µM (OVCAR-5): -3.77%; inhibition of growth at 10 µM (SF-295): -3.49%
